Legend:
Type in all cases: in vivo
[1] = tested on: GPx-1 (+/+)- and GPx-1 (−/−)-mice; experiment: Rota-rod test after MA; conditions: MA 8 mg/kg i.p. x4, GPx-1 (+/+) and (−/−) mice
Procedure: (§1) The mice received four times of MA (8 mg/kg, ip) or saline as a 2 hr-time interval. Chemicals (AME, EBS, and PKC inhibitors) were administrated for 5 consecutive days (twice daily), and were given 2 times at 4 hr and 30 min before the first MA injection as shown in the experimental schedule. Animals were sacrificed at 4 hrs and 3 days after the final MA administration.
The apparatus (Ugo Basile model 7650, Comerio, VA, Italy) consisted of a base platform and a rotating rod with a nonslippery surface. The rod was placed at a height of 15 cm from the base. The rod, 30 cm in length, was divided into 5 equal sections by 6 opaque disks (so that the subjects cannot be distracted by one another) To assess motor performance, the mice first trained on the apparatus 2 minutes at a constant rate of 4 r.p.m. per 30 s prior to the test. The test was performed 30 minutes after training and an accelerating paradigm was applied, starting from a rate of 4 r.p.m. to a maximum speed of 40 r.p.m., then the rotation speed was kept constant at 40 r.p.m. for a maximum of 300 s. The duration for which the animal could maintain balance on the rotating drum was measured as the rotarod latency, with a maximal cut-off time of 300 s.

[2] = tested on: Iba-1 (a marker of microgliosis); experiment: Iba-1 expression after MA (western blot); conditions: p.o.; AME 50, EBS 20, rottlerin 20 mg/kg; MA 8 mg/kg i.p. x4; GPx-1 (+/+) and (−/−) mice
Procedure: as §1
(§2) The western blot assays was performed as described previously (Kim et al., 2003). Tissues were homogenized in lysis buffer, containing 200 mM Tris HCl (pH 6.8), 1% SDS, 5 mM EGTA (ethylene glycol tetraacetic acid), 5 mM EDTA (ethylenediaminetetraacetic acid), 10% glycerol, 1× phosphatase inhibitor cocktail I, 1× protease inhibitor cocktail. Lysate was centrifuged at 12,000×g for 30 min and supernatant fraction was used for Western blot analysis. Proteins (20-50 ug/lane) were separated by 6%, 8%, 10% or 15% sodium dodecyl sulfate-polyacrylamide gel electrophoresis and transferred onto the PVDF membranes. Following transfer, the membranes were preincubated with 5% non-fat milk and incubated overnight at 4° C. with primary antibody against β-actin (1:50000, Sigma, St. Louis, Mo., USA), TH (1:5000, Chemicon), TH phosphor-Ser 19 (1:1000, Chemicon,), TH phosphor-Ser 31 (1:500, Chemicon), TH phosphor-Ser 40 (1:500, Chemicon), F4/80 (1:500, Serotec), GPx1 (1:2500, AbFrontier), PKC (1:5000, Santa Cruz biotechnology, Santa Cruz, Calif., USA), p53 (1:5000, Cell signaling, Beverly, Mass., USA), MDM2 (1:1000, BD Pharmingen, San Jose, Calif., USA), MDM2 phospho-Ser 166 (1:1000, cell signaling), BDNF (1:500, Chemicon), GDNF (1:250, Santa Cruz), COX-2 (1:2000, Cayman, Ann Arbor, MC, USA), IL-6 (1:2000, Abcam, Cambridge, Mass., USA), TNF-a (1:1000, R&D Systems, Mckinley place NE, NM, USA), IFN-γ (1:500, Chemicon) or Iba-1 (1:500, Wako, Osaka, Japan). And then, membranes were incubated with HRP-conjugated secondary anti-rabbit IgG (1:1000, GE healthcare, Piscataway, N.J., USA), anti-mouse IgG (1:1000, Sigma) or anti-goat IgG (1:1000, Sigma) for 2 h. […]

[3] = tested on: glutathione peroxidase (GPx)-1; experiment: Striatal GPx-1-like immunoreactivity after MA; conditions: p.o.; AME 50, EBS 20, rottlerin 20 mg/kg; MA 8 mg/kg i.p. x4; GPx-1 (+/+) mice
Procedure: as §1
Animals were sacrificed at 4 hours and 3 days after the last MA injection. They were anesthetized with 60% urethane and perfused transcardially with 50 ml of 50 mM phosphate buffered saline (PBS), followed by 50 ml of a mixture of 4% paraformaldehyde in PBS. The rate of perfusion was 50 ml/min. The brains were removed, post-fixed at 4° C. for 24 h in the same fixative and then cryoprotected in 30% sucrose in PBS. The brains were cut on a horizontal sliding microstome into 40 μm transverse free-floading sections (Kim et al., 1999).
The immunocytochemistry was performed as described previously (Kim et al., 2000a, b). Briefly, prior to incubation with the primary antibodies, sections were preincubated with 0.3% hydrogen peroxide in PBS for 30 min (to block endogenous peroxidase activity), then in PBS containing 0.4% Triton X-100 for 20 min and 1% normal serum for 20 min. The sections were then incubated for 48 h at 4° C. in primary antibody against tyrosine hydroxylase (1:500, Chemicon, Termecula, Calif., USA), GPx1 (1:500, AbFrontier, Seoul, Korea), PKC (1:200, Santa Cruz biotechnology INC, CA, USA) or F4/80 (1:50, Serotec, Raleigh, N.C., USA). The sections were further incubated with secondary biotinylated antisera (1:1000 dilution; Vector, Brulingame, Calif.) for 1 hr, and immersed in avidin-biotin-peroxidase complex (ABC Elite kit, Vector) for 1 hr. Sections were always washed three times with PBS (pH 7.4) between each incubation step. 3,3′-diaminobenzidine (DAB) was used as a chromogen.
The western blot assays was performed as described previously (Kim et al., 2003). […]

cyclooxygenase (COX)-2 = experiment: COX-2 expression after MA (western blot); conditions: p.o.; AME 50, EBS 20, rottlerin 20 mg/kg; MA 8 mg/kg i.p. x4; GPx-1 (+/+) and (−/−) mice
Procedure: as §1, §2

[4] = tested on: dopamine (DA), DOPAC, HVA; experiment: Striatal DA, DOPAC and HVA after MA (HPLC); conditions: p.o.; AME 50, EBS 20, rottlerin 20 mg/kg; MA 8 mg/kg i.p. x4; GPx-1 (+/+) and (−/−) mice
Procedure: as §1
At 3 day after last MA injection, mice were killed by cervical dislocation and the brains were removed. Striatum was dissected and immediately frozen on dry ice, and stored at −70° C. until extraction. Striatum obtained from each animal was weighed, ultrasonicated in 10% perchloric acid containing 10 ng/mg of the internal standard dihydroxybenzylamine, and centrifuged at 20,000×g for 10 min. The levels of DA and its metabolites 3,4-dihydroxyphenylacetic acid (DOPAC) and homovanillic acid (HVA) in brain tissue extracts were determined by HPLC coupled with electrochemical detection as described (Kim et al., 1999). The 20 μl aliquot of the supernatant was injected into the HPLC equipped with a 3 μm C18 column. The mobile phase was comprised of 26 ml of acetonitrile, 21 ml of tetrahydrofuran and 960 ml of 0.15M monochloroacetic acid (pH 3.0) containing 50 mg/l of EDTA and 200 mg/l of sodium octyl sulfate. The amount of DA, DOPAC and HVA were determined by comparison of peak area of tissue sample with standard, and were expressed in nanograms per gram of wet tissue.

[5] = p.o., AME 25 or 50, EBS 10 or 20, rottlerin 10 or 20 mg/kg

Compound	effect on MA-induced impairment in rota-rod performance [1, 5]	effect on MA-induced increase in Iba-1 expression [2]	effect on MA-induced decrease in striatal GPx-1-IR [3]	effect on MA-induced increase in COX-2 expression (cyclooxygenase (COX)-2)	effect on MA-induced change in DA turnover rate [4]	effect on MA-induced change in striatal DA level [4]	effect on MA-induced change in striatal DOPAC level [4]	effect on MA-induced change in striatal HVA level [4]	effect on MA-induced impairment in rota-rod performance ([1]; PKC inhibitors intra-striatal (chelerythrine 0.2 ug/head, rottlerin 3.0 ug/head significant))
O=c1c2ccccc2[se]n1-c1ccccc1 [EBS, 2-phenyl-1,2-benzisoselenazol-3(2H)-one]	inhibited these effects in a dose-dependent manner	significantly and consistently attenuating effects	inhibited MA-induced decrease in the GPx-1-IR	significantly and consistently attenuating effects	significantly attenuated MA-induced dopaminergic impairment	significantly attenuated MA-induced dopaminergic impairment	significantly attenuated MA-induced dopaminergic impairment	significantly attenuated MA-induced dopaminergic impairment	
CC(=O)Oc1ccccc1C(=O)Oc1c(C)occc1=O [AME, 3-(2-methyl-4-pyronyl)-2-acetyloxybenzoate]	inhibited these effects in a dose-dependent manner	significantly and consistently attenuating effects	inhibited MA-induced decrease in the GPx-1-IR	significantly and consistently attenuating effects	significantly attenuated MA-induced dopaminergic impairment	significantly attenuated MA-induced dopaminergic impairment	significantly attenuated MA-induced dopaminergic impairment	significantly attenuated MA-induced dopaminergic impairment	
CC(=O)c1c(O)c(C)c(O)c(Cc2c(O)c3c(c(C(=O)/C=C/c4ccccc4)c2O)OC(C)(C)C=C3)c1O [rottlerin]	inhibited these effects in a dose-dependent manner	significantly and consistently attenuating effects	inhibited MA-induced decrease in the GPx-1-IR	significantly and consistently attenuating effects	significantly attenuated MA-induced dopaminergic impairment	significantly attenuated MA-induced dopaminergic impairment	significantly attenuated MA-induced dopaminergic impairment	significantly attenuated MA-induced dopaminergic impairment	attenuated the MA-behavioral impairments in a dose-dependent manner

From patent publication US20120328696A1, “ANTI-PARKINSONIAN COMPOUND ACETYLSALICYLIC ACID MALTOL ESTER” (Hutecs Korea Pharmaceutical Co., Ltd., priority 2008, published 2012)
